Where a name gives a salt, the structure may show the parent alone.
melting point | Compound
150 to 151 °C | COc1ccc(-n2ccnc2C(c2cc(F)ccc2F)S(=O)(=O)c2ccc(Cl)cc2)cc1 (centres unmarked) [Example 31, 2-[[(4-Chlorophenyl)sulfonyl]-(2,5-difluorophenyl)methyl]-1-(4-methoxyphenyl)-1H-imidazole]
204 to 206 °C | Nc1cc(C(c2cc(F)ccc2F)S(=O)(=O)c2ccc(Cl)cc2)c(Br)cn1 (centres unmarked) [Example 232, [5-Bromo-4-[(4-chlorophenylsulfonyl)(2,5-difluorophenyl)methyl]pyridin-2-yl]amine]
148 to 150 °C | O=S(=O)(c1ccc(Cl)cc1)C(c1cc(F)ccc1F)c1cc(NCCc2ccncc2)ncc1Cl (centres unmarked) [Example 181, 5-Chloro-4-[(4-chlorophenylsulfonyl)(2,5-difluorophenyl)methyl]-2-[2-(pyridin-4-yl)ethylamino]pyridine]
147 to 148 °C | O=C(O)CCCc1cc(C(c2cc(F)ccc2F)S(=O)(=O)c2ccc(Cl)cc2)c(Cl)cn1 (centres unmarked) [Example 289, 4-[5-Chloro-4-[(4-chlorophenylsulfonyl)(2,5-difluorophenyl)methyl]pyridin-2-yl]butyric acid]
184 to 190 °C | Cl.O=S(=O)(c1ccc(Cl)cc1)C(c1cc(F)ccc1F)C1CCNCC1 (centres unmarked)
> 230 °C | O=C(O)c1ccc(C(c2cc(F)ccc2F)S(=O)(=O)c2ccc(Cl)cc2)nc1 (centres unmarked) [Example 50, [6-[(4-Chlorophenylsulfonyl)-(2,5-difluorophenyl)methyl]pyridin-3-yl]carboxylic acid]
200 to 201 °C | O=C(O)c1cccc(C(c2cc(F)ccc2F)S(=O)(=O)c2ccc(Cl)cc2)n1 (centres unmarked) [Example 146, 6-[(4-Chlorophenylsulfonyl)(2,5-difluorophenyl)methyl]picolinic acid]
164 to 165 °C | O=S(=O)(c1ccc(Cl)cc1)C(c1cc(F)ccc1F)c1cc(CO)ncc1Cl (centres unmarked) [Example 257, [5-Chloro-4-[(4-chlorophenylsulfonyl)(2,5-difluorophenyl)methyl]pyridin-2-yl]methanol]
186 to 187 °C | O=S(=O)(Cc1ccc(C(c2cc(F)ccc2F)S(=O)(=O)c2ccc(Cl)cc2)nc1)c1ccc(Cl)cc1 (centres unmarked) [Example 40, 2-[(4-Chlorophenylsulfonyl)-(2,5-difluorophenyl)methyl]-5-[(4-chlorophenylsulfonyl)methyl]pyridine]
176 to 178 °C | CC(C)(CO)CNc1cc(C(c2cc(F)ccc2F)S(=O)(=O)c2ccc(Cl)cc2)c(Cl)cn1 (centres unmarked) [Example 195, 3-[5-Chloro-4-[(4-chlorophenylsulfonyl)(2,5-difluorophenyl)methyl]pyridin-2-ylamino]-2,2-dimethylpropan-1-ol]
236 to 238 °C | O=C(O)/C=C/c1ccc(C(c2cc(F)ccc2F)S(=O)(=O)c2ccc(Cl)cc2)nc1 (centres unmarked) [Example 135, (E)-3-[6-[(4-Chlorophenylsulfonyl)(2,5-difluorophenyl)methyl]pyridin-3-yl]acrylic acid]
217 to 218 °C | Cc1ccc(S(=O)(=O)NCC(=O)NCc2ccc(C(c3cc(F)ccc3F)S(=O)(=O)c3ccc(Cl)cc3)nc2)cc1 (centres unmarked) [Example 70, N-[[6-[(4-Chlorophenylsulfonyl)(2,5-difluorophenyl)methyl]pyridin-3-yl]methyl]-2-(4-methylphenylsulfonylamino)acetamide]
164 to 166 °C | NCCNC(=S)c1ccc(C(c2cc(F)ccc2F)S(=O)(=O)c2ccc(Cl)cc2)nc1 (centres unmarked) (as salt: hydrochloride) [Example 142, N-(2-Aminoethyl)-6-[(4-chlorophenylsulfonyl)(2,5-difluorophenyl)methyl]thionicotinamide]
217 to 219 °C | CS(=O)(=O)Nc1cc(C(c2cc(F)ccc2F)S(=O)(=O)c2ccc(Cl)cc2)c(F)cn1 (centres unmarked) [Example 204, N-[4-[(4-Chlorophenylsulfonyl)(2,5-difluorophenyl)methyl]-5-fluoropyridin-2-yl]methanesulfonamide]
78 to 80 °C | O=C1CCCN1CCCNc1cc(C(c2cc(F)ccc2F)S(=O)(=O)c2ccc(Cl)cc2)c(Cl)cn1 (centres unmarked) [Example 169, 1-[3-[[5-Chloro-4-[(4-chlorophenylsulfonyl)-(2,5-difluorophenyl)methyl]pyridin-2-yl]amino]propyl]pyrrolidin-2-one]
116 to 117 °C | Cc1ccnc(C(c2cc(F)ccc2F)S(=O)(=O)c2ccc(Cl)cc2)c1 (centres unmarked) [Example 16, 2-[[(4-Chlorophenyl)sulfonyl]-(2,5-difluorophenyl)methyl]-4-methylpyridine]
196 to 198 °C | Cc1cnc(CO)cc1C(c1cc(F)ccc1F)S(=O)(=O)c1ccc(Cl)cc1 (centres unmarked) [Example 207, [4-[(4-Chlorophenylsulfonyl)(2,5-difluorophenyl)methyl]-5-methylpyridin-2-yl]methanol]
243 to 245 °C | O=C(Nc1nccs1)c1cnc(C(c2cc(F)ccc2F)S(=O)(=O)c2ccc(Cl)cc2)c(F)c1 (centres unmarked) [Example 128, 6-(4-Chlorophenylsulfonyl)(2,5-difluorophenyl)methyl-5-fluoro-N-thiazol-2-ylnicotinamide]
150 to 152 °C | O=S(=O)(c1ccc(Cl)cc1)C(c1cc(F)ccc1F)C1CCSCC1 (centres unmarked) [Example 35, 4-[[(4-Chlorophenyl)sulfonyl](2,5-difluorophenyl)methyl]tetrahydrothiopyrane]

melting point | Compound
157 to 158 °C | O=S(=O)(c1ccc(F)cc1)C(c1cc(F)ccc1F)c1cc(NCCO)ncc1Cl (centres unmarked) [Example 179, 2-[[5-Chloro-4-[(2,5-difluorophenyl)-(4-fluorophenylsulfonyl)methyl]pyridin-2-yl]amino]ethanol]
177 to 178 °C | CN(C)S(=O)(=O)NCc1ccc(C(c2cc(F)ccc2F)S(=O)(=O)c2ccc(Cl)cc2)nc1 (centres unmarked) [Example 68, N-[[6-[(4-Chlorophenylsulfonyl)(2,5-difluorophenyl)methyl]pyridin-3-yl]methyl]-N′,N′-dimethylsulfamide]
183 to 184 °C | Nc1cccc(C(c2cc(F)ccc2F)S(=O)(=O)c2ccc(Cl)cc2)n1 (centres unmarked) [Example 149, 6-[(4-Chlorophenylsulfonyl)(2,5-difluorophenyl)methyl]pyridin-2-ylamine]
70 to 73 °C | Fc1ccc(F)c(C(Sc2ccc(Cl)cc2)c2ccc(C3OCCO3)cn2)c1 (centres unmarked) [Example 41, 2-[(4-Chlorophenylthio)-(2,5-difluorophenyl)methyl]-5-(1,3-dioxolan-2-yl)pyridine]
208 to 209 °C | O=C(O)c1cc(C(c2cc(F)ccc2F)S(=O)(=O)c2ccc(Cl)cc2)c(F)cn1 (centres unmarked) [Example 201, 4-[(4-Chlorophenylsulfonyl)(2,5-difluorophenyl)methyl]-5-fluoropicolinic acid]
249 to 251 °C | O=C(O)c1cnc(C(c2cc(F)ccc2F)S(=O)(=O)c2ccc(Cl)cc2)c(F)c1 (centres unmarked) [Example 127, 6-(4-Chlorophenylsulfonyl)(2,5-difluorophenyl)methyl-5-fluoronicotinic acid]
208 to 209 °C | O=S(=O)(c1ccc(Cl)cc1)C(c1ccncc1)C1CCOCC1 (centres unmarked) [Example 3, 4-[(4-Chlorophenylsulfonyl)(tetrahydropyran-4-yl)methyl]pyridine]
150 to 152 °C | O=S(=O)(c1ccc(Cl)cc1)C(c1cc(F)ccc1F)C1CCOCC1 (centres unmarked) [Example 34, 4-[[(4-Chlorophenyl)sulfonyl](2,5-difluorophenyl)methyl]tetrahydropyrane]
95 to 97 °C | Fc1ccc(SC(c2cc(F)ccc2F)c2cc(Cl)ncc2Cl)cc1 (centres unmarked) [Example 177, 2,5-Dichloro-4-[(2,5-difluorophenyl)-(4-fluorophenylthio)methyl]pyridine]
146 to 147 °C | O=c1oc2ccccc2c(O)c1C(Sc1ccc(Cl)cc1)c1cc(F)ccc1F (centres unmarked)
177 to 179 °C | CN(C)CC(=O)NCc1ccc(C(c2cc(F)ccc2F)S(=O)(=O)c2ccc(Cl)cc2)nc1 (centres unmarked) [Example 71, N-[[6-[(4-Chlorophenylsulfonyl)(2,5-difluorophenyl)methyl]pyridin-3-yl]methyl]-2-dimethylaminoacetamide]
183 to 184 °C | O=S(=O)(c1ccc(Cl)cc1)C(c1ccc[n+]([O-])c1)c1cc(F)ccc1F (centres unmarked) [Example 51, 3-[(4-Chlorophenylsulfonyl)-(2,5-difluorophenyl)methyl]pyridine-N-oxide]
119 to 120 °C | C=CCOc1cccnc1C(c1cc(F)ccc1F)S(=O)(=O)c1ccc(Cl)cc1 (centres unmarked) [Example 18, 3-Allyloxy-2-[[(4-chlorophenyl)sulfonyl]-(2,5-difluorophenyl)methyl]pyridine]
179 to 180 °C | Cn1c(Cl)cnc1C(c1cc(F)ccc1F)S(=O)(=O)c1ccc(Cl)cc1 (centres unmarked) [Example 29, 2-[[(4-Chlorophenyl)sulfonyl]-(2,5-difluorophenyl)methyl]-1-methyl-5-chloro-1H-imidazole]
145 to 146 °C | COC(=O)/C=C/c1ccc(C(c2cc(F)ccc2F)S(=O)(=O)c2ccc(Cl)cc2)nc1 (centres unmarked) [Example 44, Methyl 3-[6-[(4-chlorophenylsulfonyl)-(2,5-difluorophenyl)methyl]pyridin-3-yl]acrylate]
163 to 164 °C | O=S(=O)(c1ccc(Cl)cc1)C(c1nccs1)c1cc(F)ccc1F (centres unmarked) [Example 30, 2-[[(4-Chlorophenyl)sulfonyl]-(2,5-difluorophenyl)methyl]thiazole]
138 to 139 °C | CS(=O)(=O)NCCCNc1cc(C(c2cc(F)ccc2F)S(=O)(=O)c2ccc(Cl)cc2)c(Cl)cn1 (centres unmarked) [Example 189, N-[3-[[5-Chloro-4-[(4-chlorophenylsulfonyl)-(2,5-difluorophenyl)methyl]pyridin-2-yl]amino]propyl]methanesulfonamide]
174 to 176 °C | O=C(O)CCc1cnc(C(c2cc(F)ccc2F)S(=O)(=O)c2ccc(Cl)cc2)c(F)c1 (centres unmarked) [Example 133, 3-[6-(4-Chlorophenylsulfonyl)(2,5-difluorophenyl)methyl-5-fluoropyridin-3-yl]propionic acid]
> 250 °C (dec.) | NCCNC(=O)c1ccc(C(c2cc(F)ccc2F)S(=O)(=O)c2ccc(Cl)cc2)nc1 (centres unmarked) (as salt: hydrochloride) [Example 139, N-(2-Aminoethyl)-6-[(4-chlorophenylsulfonyl)(2,5-difluorophenyl)methyl]nicotinamide]
